According to patent US10975084B2, “KDM5 inhibitors” (Merck Sharp & Dohme Corp., priority 2016, dated 2021):

Target: KDM5B (Homo sapiens (Human), UniProt Q9UGL1)
Assay: KDM5B TR-FRET Enzyme Activity Assay
Format: biochemical
Details: LANCE TR-FRET; 5 nM full-length recombinant KDM5B; ten point titration 100000 nM to 5.08 nM
In short: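 Full-length KDM5B from Sf21 cells (5 nM) was preincubated 30 min with compound in HEPES pH 7.3 buffer with ascorbate and 2 μM Fe(II). Reaction with 500 nM biotinylated H3K4Me3 peptide and 500 nM α-ketoglutarate ran 60 min. Product was detected by TR-FRET (Eu-anti-H3K4Me1-2/streptavidin-Dylight 650, 665/615 ratio); IC50 came from a 4-parameter fit.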

Sequence of KDM5B (Q9UGL1 whole entry): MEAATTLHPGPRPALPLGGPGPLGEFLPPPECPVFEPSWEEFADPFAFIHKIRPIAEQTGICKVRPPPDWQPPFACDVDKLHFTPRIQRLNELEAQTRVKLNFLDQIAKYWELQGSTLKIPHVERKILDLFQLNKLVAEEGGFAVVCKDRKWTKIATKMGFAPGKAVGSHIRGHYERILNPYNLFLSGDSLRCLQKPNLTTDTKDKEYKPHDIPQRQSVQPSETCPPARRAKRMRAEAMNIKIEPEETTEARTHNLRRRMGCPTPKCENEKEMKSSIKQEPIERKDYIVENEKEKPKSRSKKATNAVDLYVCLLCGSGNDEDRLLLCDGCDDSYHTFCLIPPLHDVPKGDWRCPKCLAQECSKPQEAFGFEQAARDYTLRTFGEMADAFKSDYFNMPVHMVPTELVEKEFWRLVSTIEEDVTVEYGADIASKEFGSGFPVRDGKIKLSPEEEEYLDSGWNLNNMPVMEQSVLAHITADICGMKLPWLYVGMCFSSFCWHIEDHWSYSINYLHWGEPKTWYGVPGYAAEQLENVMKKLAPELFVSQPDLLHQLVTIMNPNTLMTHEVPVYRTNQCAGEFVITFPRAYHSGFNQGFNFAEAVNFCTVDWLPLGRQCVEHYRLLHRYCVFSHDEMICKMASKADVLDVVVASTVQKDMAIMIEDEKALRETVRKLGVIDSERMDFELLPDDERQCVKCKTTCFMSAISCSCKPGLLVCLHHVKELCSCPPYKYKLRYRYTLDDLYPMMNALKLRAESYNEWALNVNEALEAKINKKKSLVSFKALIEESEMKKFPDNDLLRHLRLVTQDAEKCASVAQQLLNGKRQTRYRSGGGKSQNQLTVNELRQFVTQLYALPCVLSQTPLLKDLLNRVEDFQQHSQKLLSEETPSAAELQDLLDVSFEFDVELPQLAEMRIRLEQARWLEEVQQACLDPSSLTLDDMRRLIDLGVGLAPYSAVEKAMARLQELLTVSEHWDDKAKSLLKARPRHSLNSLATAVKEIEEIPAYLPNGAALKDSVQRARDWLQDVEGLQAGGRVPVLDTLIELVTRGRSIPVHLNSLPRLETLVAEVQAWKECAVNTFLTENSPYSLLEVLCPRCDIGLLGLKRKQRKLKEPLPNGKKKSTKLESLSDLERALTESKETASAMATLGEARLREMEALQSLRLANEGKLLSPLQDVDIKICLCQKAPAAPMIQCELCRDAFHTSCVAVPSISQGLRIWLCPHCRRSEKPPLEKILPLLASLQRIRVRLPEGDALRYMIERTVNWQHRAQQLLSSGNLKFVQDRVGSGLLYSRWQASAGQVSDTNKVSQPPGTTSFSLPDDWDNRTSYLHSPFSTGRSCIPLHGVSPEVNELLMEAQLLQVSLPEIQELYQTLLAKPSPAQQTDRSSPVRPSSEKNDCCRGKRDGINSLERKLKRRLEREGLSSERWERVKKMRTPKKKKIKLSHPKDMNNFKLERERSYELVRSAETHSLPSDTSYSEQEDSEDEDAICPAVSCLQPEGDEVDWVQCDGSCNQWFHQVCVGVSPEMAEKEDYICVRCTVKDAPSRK

Q: With `CC(C)c1c(-c2ccc(N)cc2)[nH]c2ncnn2c1=O` [Example 11-99, 5-(4-aminophenyl)-6-(1-methylethyl)[1,2,4]triazolo[1,5-a]pyrimidin-7(4H)-one] as the compound, how does the IC50 read?
A: The IC50 was 32.9 nM.

Q: Which IC50 does the source give for `CC(C)c1c(-c2ccc3c(c2)OCC(=O)N3)[nH]c2ncnn2c1=O` [Example 11-102, 7-[6-(1-methylethyl)-7-oxo-4,7-dihydro[1,2,4]triazolo[1,5-a]pyrimidin-5-yl]-2H-1,4-benzoxazin-3(4H)-one] here?
A: Its IC50 is 17.8 nM.

Q: Which IC50 does the source give for `CC(C)c1c(-c2ccc(-c3nccn3C)cc2)[nH]c2ncnn2c1=O` [Example 11-90, 6-(1-methylethyl)-5-[4-(1-methyl-1H-imidazol-2-yl)phenyl][1,2,4]triazolo[1,5-a]pyrimidin-7(4H)-one] here?
A: Its IC50 is 7.26 nM.

Q: How did the IC50 turn out when `CCCn1cc(-c2[nH]c3ncnn3c(=O)c2C(C)C)cn1` [Example 11-21, 6-(1-methylethyl)-5-(1-propyl-1H-pyrazol-4-yl)[1,2,4]triazolo[1,5-a]pyrimidin-7(4H)-one] was run?
A: The IC50 was 5.08 nM.

Q: Which IC50 does the source give for `CC(C)c1c(-c2ccc(-n3cccn3)cc2F)[nH]c2ncnn2c1=O` [Example 11-98, 5-[2-fluoro-4-(1H-pyrazol-1-yl)phenyl]-6-(1-methylethyl)[1,2,4]triazolo[1,5-a]pyrimidin-7(4H)-one] here?
A: The IC50 was 122 nM.

Q: How did the IC50 turn out when `Cc1[nH]c2ncnn2c(=O)c1F` [Example 8-25, 6-fluoro-5-methyl[1,2,4]triazolo[1,5-a]pyrimidin-7(4H)-one] was run?
A: Its IC50 is 17900 nM.

Q: Which IC50 does the source give for `CC(C)c1c(-c2cc(-c3ccccc3)cs2)[nH]c2ncnn2c1=O` [Example 11-144, 6-(1-methylethyl)-5-(4-phenylthiophen-2-yl)[1,2,4]triazolo[1,5-a]pyrimidin-7(4H)-one] here?
A: The IC50 was 76.2 nM.

Q: How did the IC50 turn out when `CC(C)c1c(C2=CCCOC2)[nH]c2ncnn2c1=O` [Example 11-31, 5-(5,6-dihydro-2H-pyran-3-yl)-6-(1-methylethyl)[1,2,4]triazolo[1,5-a]pyrimidin-7(4H)-one] was run?
A: Its IC50 is 372 nM.

Q: How did the IC50 turn out when `CC(C)c1c(-c2cnn(Cc3cccnc3)c2)[nH]c2ncnn2c1=O` [Example 11-40, 6-(1-methylethyl)-5-[1-(pyridin-3-ylmethyl)-1H-pyrazol-4-yl][1,2,4]triazolo[1,5-a]pyrimidin-7(4H)-one] was run?
A: The IC50 was 5.77 nM.

Q: With `O=c1cc(C(F)(F)F)[nH]c2ncnn12` [Example 8-3, 5-(trifluoromethyl)[1,2,4]triazolo[1,5-a]pyrimidin-7(4H)-one] as the compound, how does the IC50 read?
A: Its IC50 is 13400 nM.

Q: Which IC50 does the source give for `CCc1cc(=O)n2ncnc2[nH]1` [Example 8-9, 5-ethyl-[1,2,4]triazolo[1,5-a]pyrimidin-7(4H)-one] here?
A: The IC50 was 21800 nM.

Q: `CC(C)c1c(-c2cnn(CCS(C)(=O)=O)c2)[nH]c2ncnn2c1=O` [Example 11-47, 6-(1-methylethyl)-5-{1-[2-(methylsulfonyl)ethyl]-1H-pyrazol-4-yl}[1,2,4]triazolo[1,5-a]pyrimidin-7(4H)-one] was tested. Which IC50 did it give?
A: The IC50 was 6.93 nM.

Q: For `CC(C)c1c(-c2cc(C(F)(F)F)nn2C)[nH]c2ncnn2c1=O` [Example 11-87, 6-(1-methylethyl)-5-[1-methyl-3-(trifluoromethyl)-1H-pyrazol-5-yl][1,2,4]triazolo[1,5-a]pyrimidin-7(4H)-one], which IC50 is on record?
A: The IC50 was 1220 nM.

Q: With `CC(C)c1c(-c2ccc3c(cnn3C)c2)[nH]c2ncnn2c1=O` [Example 11-78, 6-(1-methylethyl)-5-(1-methyl-1H-indazol-5-yl)[1,2,4]triazolo[1,5-a]pyrimidin-7(4H)-one] as the compound, how does the IC50 read?
A: Its IC50 is 10.4 nM.

Q: How did the IC50 turn out when `CC(C)n1cc(-c2cc(=O)n3ncnc3[nH]2)cn1` [Example 8-19, 5-[1-(1-methylethyl)-1H-pyrazol-4-yl][1,2,4]triazolo[1,5-a]pyrimidin-7(4H)-one] was run?
A: Its IC50 is 1530 nM.

Q: `CC(C)c1c(-c2cnn(C)c2)[nH]c2ncnn2c1=O` [Example 8-38, 6-(1-methylethyl)-5-(1-methyl-1H-pyrazol-4-yl)[1,2,4]triazolo[1,5-a]pyrimidin-7(4H)-one] was tested. Which IC50 did it give?
A: The IC50 was 16.2 nM.

Q: Which IC50 does the source give for `O=c1cc(-c2ccccn2)[nH]c2ncnn12` [Example 8-23, 5-pyridin-2-yl[1,2,4]triazolo[1,5-a]pyrimidin-7(4H)-one] here?
A: The IC50 was 2420 nM.

Q: Which IC50 does the source give for `CC(C)c1c(C2=CC(C)(C)OC(C)(C)C2)[nH]c2ncnn2c1=O` [Example 11-81, 6-(1-methylethyl)-5-(2,2,6,6-tetramethyl-3,6-dihydro-2H-pyran-4-yl)[1,2,4]triazolo[1,5-a]pyrimidin-7(4H)-one] here?
A: Its IC50 is 306 nM.

Q: How did the IC50 turn out when `CCCc1cc(=O)n2ncnc2[nH]1` [Example 8-6] was run?
A: The IC50 was 47600 nM.

Q: For `CC(C)c1c(-c2cccc(Cl)c2)[nH]c2ncnn2c1=O` [Example 11-64, 5-(3-chlorophenyl)-6-(1-methylethyl)[1,2,4]triazolo[1,5-a]pyrimidin-7(4H)-one], which IC50 is on record?
A: Its IC50 is 91.8 nM.

Q: How did the IC50 turn out when `CC(C)c1c(-c2cnn(C(C)(C)C)c2)[nH]c2ncnn2c1=O` [Example 11-145, 5-(1-tert-butyl-1H-pyrazol-4-yl)-6-(1-methylethyl)[1,2,4]triazolo[1,5-a]pyrimidin-7(4H)-one] was run?
A: The IC50 was 5.08 nM.

Q: Which IC50 does the source give for `CCOC(=O)c1[nH]c2ncnn2c(=O)c1Cl` [Example 8-10, ethyl 6-chloro-7-oxo-4,7-dihydro[1,2,4]triazolo[1,5-a]pyrimidine-5-carboxylate] here?
A: The IC50 was 6280 nM.

Q: With `CC(C)c1c(-c2cccc(N3CCCCC3)c2)[nH]c2ncnn2c1=O` [Example 11-42, 6-(1-methylethyl)-5-(3-piperidin-1-ylphenyl)[1,2,4]triazolo[1,5-a]pyrimidin-7(4H)-one] as the compound, how does the IC50 read?
A: The IC50 was 74.7 nM.

Q: How did the IC50 turn out when `CC(C)c1c(/C=C/c2ccccc2)[nH]c2ncnn2c1=O` [Example 11-55, 6-(1-methylethyl)-5-[(E)-2-phenylethenyl][1,2,4]triazolo[1,5-a]pyrimidin-7(4H)-one] was run?
A: The IC50 was 9.45 nM.

Q: How did the IC50 turn out when `Cc1cc(=O)n2ncnc2[nH]1` [Example 8-4, 5-methyl-[1,2,4]triazolo[1,5-a]pyrimidin-7(4H)-one] was run?
A: Its IC50 is 26400 nM.

Q: For `CC(C)c1c(-c2ccccc2)[nH]c2ncnn2c1=O` [Example 8-35, 6-(1-methylethyl)-5-phenyl[1,2,4]triazolo[1,5-a]pyrimidin-7(4H)-one], which IC50 is on record?
A: Its IC50 is 271 nM.

Q: With `CC(C)c1c(-c2ccc(C(F)(F)CO)nc2)[nH]c2ncnn2c1=O` [Example 12-2, 5-[6-(1,1-difluoro-2-hydroxyethyl)pyridin-3-yl]-6-(1-methylethyl)[1,2,4]triazolo[1,5-a]pyrimidin-7(4H)-one] as the compound, how does the IC50 read?
A: The IC50 was 30.7 nM.

Q: Which IC50 does the source give for `CC(C)c1c(-c2cccc(CO)c2)[nH]c2ncnn2c1=O` [Example 11-59, 5-[3-(hydroxymethyl)phenyl]-6-(1-methylethyl)[1,2,4]triazolo[1,5-a]pyrimidin-7(4H)-one] here?
A: Its IC50 is 26.5 nM.

Q: For `Cn1ccc(-c2cc(=O)n3ncnc3[nH]2)n1` [Example 8-13, 5-(1-methyl-1H-pyrazol-3-yl)[1,2,4]triazolo[1,5-a]pyrimidin-7(4H)-one], which IC50 is on record?
A: Its IC50 is 29200 nM.

Q: With `CC(C)c1c(-c2ccc(CO)cc2)[nH]c2ncnn2c1=O` [Example 11-60, 5-[4-(hydroxymethyl)phenyl]-6-(1-methylethyl)[1,2,4]triazolo[1,5-a]pyrimidin-7(4H)-one] as the compound, how does the IC50 read?
A: The IC50 was 13.5 nM.

Q: With `CC(C)c1c(-c2ccn(C(C)(C)C)c2)[nH]c2ncnn2c1=O` [Example 11-134, 5-(1-tert-butyl-1H-pyrrol-3-yl)-6-(1-methylethyl)[1,2,4]triazolo[1,5-a]pyrimidin-7(4H)-one] as the compound, how does the IC50 read?
A: Its IC50 is 5.08 nM.

Q: For `CC(C)c1c(-c2cccc(C(F)(F)F)c2)[nH]c2ncnn2c1=O` [Example 11-85, 6-(1-methylethyl)-5-[3-(trifluoromethyl)phenyl] [1,2,4]triazolo[1,5-a]pyrimidin-7(4H)-one], which IC50 is on record?
A: The IC50 was 41.2 nM.

Q: Which IC50 does the source give for `CC(C)c1c(-c2csc(-n3cccn3)n2)[nH]c2ncnn2c1=O` [Example 11-137, 6-(1-methylethyl)-5-[2-(1H-pyrazol-1-yl)-1,3-thiazol-4-yl][1,2,4]triazolo[1,5-a]pyrimidin-7(4H)-one] here?
A: Its IC50 is 41.9 nM.

Q: With `CC(C)c1c(-c2cnn(-c3ccccc3)c2)[nH]c2ncnn2c1=O` [Example 11-8, 6-(1-methylethyl)-5-(1-phenyl-1H-pyrazol-4-yl)[1,2,4]triazolo[1,5-a]pyrimidin-7(4H)-one] as the compound, how does the IC50 read?
A: Its IC50 is 6.28 nM.

Q: `CC(C)c1c(-c2cnc3ccccc3c2)[nH]c2ncnn2c1=O` [Example 11-76, 6-(1-methylethyl)-5-quinolin-3-yl[1,2,4]triazolo[1,5-a]pyrimidin-7(4H)-one] was tested. Which IC50 did it give?
A: The IC50 was 23.8 nM.

Q: For `CC(C)c1c(-c2csc(-n3cccc3)n2)[nH]c2ncnn2c1=O` [Example 11-140, 6-(1-methylethyl)-5-[2-(1H-pyrrol-1-yl)-1,3-thiazol-4-yl][1,2,4]triazolo[1,5-a]pyrimidin-7(4H)-one], which IC50 is on record?
A: Its IC50 is 124 nM.

Q: Which IC50 does the source give for `CC(C)c1c(-c2ccncc2)[nH]c2ncnn2c1=O` [Example 11-24, 6-(1-methylethyl)-5-pyridin-4-yl[1,2,4]triazolo[1,5-a]pyrimidin-7(4H)-one] here?
A: Its IC50 is 41.2 nM.

Q: With `CC(C)c1c(-c2cnc(-c3ccc(F)cc3)o2)[nH]c2ncnn2c1=O` [Example 11-113, 5-[2-(4-fluorophenyl)-1,3-oxazol-5-yl]-6-(1-methylethyl)[1,2,4]triazolo[1,5-a]pyrimidin-7(4H)-one] as the compound, how does the IC50 read?
A: The IC50 was 17.3 nM.

Q: With `CC(C)c1c(-c2cnn(Cc3cccs3)c2)[nH]c2ncnn2c1=O` [Example 11-110, 6-(1-methylethyl)-5-[1-(thiophen-2-ylmethyl)-1H-pyrazol-4-yl][1,2,4]triazolo[1,5-a]pyrimidin-7(4H)-one] as the compound, how does the IC50 read?
A: The IC50 was 6.7 nM.

Q: How did the IC50 turn out when `COC(=O)c1ccc(-c2[nH]c3ncnn3c(=O)c2C(C)C)cc1` [Example 11-79, methyl 4-[6-(1-methylethyl)-7-oxo-4,7-dihydro[1,2,4]triazolo[1,5-a]pyrimidin-5-yl]benzoate] was run?
A: The IC50 was 19.4 nM.

Q: With `CCc1c(C(F)(F)F)[nH]c2ncnn2c1=O` [Example 8-16, 6-ethyl-5-(trifluoromethyl)[1,2,4]triazolo[1,5-a]pyrimidin-7(4H)-one] as the compound, how does the IC50 read?
A: The IC50 was 1590 nM.

Q: For `CCCc1[nH]c2ncnn2c(=O)c1-c1ccccc1` [Example 8-32, 6-phenyl-5-propyl[1,2,4]triazolo[1,5-a]pyrimidin-7(4H)-one], which IC50 is on record?
A: Its IC50 is 37600 nM.
